Data on one molecule can be found in patent US20110081428A1, “Use of thioflavin-like compounds to increase life span and/or health span” (priority 2009, published 2011).

What all share (format): in vivo, Caenorhabditis elegans
The subject of test [1] is AM140 (rmIs132[P(unc-54) Q35::YFP]). As to the kind of experiment: Worm paralysis assay, polyQ model. The note with it: AM140, 25° C., 8 days; 50 μM ThT, 100 μM curcumin.
Experimental: (§2) Scoring for paralysis was initiated 2 and 8 days after temperature upshift for CL4176 and AM140, respectively. […] For sensitivity to EtOH or levamisole resistance, CW152 gas-1 (fc21) X and ZZ26 unc-63(x26)I worms were picked into 0.4 M EtOH or 50 μM levamisole, respectively, equilibrated for 5 min, and scored for paralysis as described above. Treated and untreated worms were compared with an unpaired t-test (implemented in Prism 4, Graphpad™ Software, Inc., San Diego, Calif., USA).
Another test relates to HSF-1 RNA. The test can be described thus: Real time quantitative PCR, hsf-1. The note with it: 50 μM ThT, 3, 6 and 12 days of treatment. The procedure:
Twelve single adults from control or 50 μM ThT populations were picked after 3, 6 and 12 days of treatment into 5 μl of distilled water and flash frozen until extraction. Individual worms were extracted using the RNeasy Micro Kit, TissueLyser and QIAcube (Qiagen). Using the manufacturer's standard Animal Tissue protocol, each sample was homogenized in buffer RLT/Bme (Qiagen) on the TissueLyser (6 min total at 20 Hz). Samples, reagents and columns were then loaded into the QIAcube robot, and processed using the “RNeasy Micro—Animal tissues and cells—DNase digest” program. Each sample was then eluted in 14 μl of Nuclease-free water. cDNA templates for the Real Time PCR reactions were made using a combination of Message Sensor RT kit (Ambion's) and TaqMan PreAmp Master Mix (Applied Biosystems). The entire worm sample was added to the RT reaction and reversed transcribed at 50° C. for 20 min, using Message Sensor's “Two Step RT-PCR Protocol” (sample RT's were randomized). Then 2.5 μl of the cDNA sample was pre-amplified with a “4×Multiplex Primer Mix” for 14 cycles using TaqMan PreAmp master mix and protocol (ABI). Two modifications were made to ABI's protocol: 1. the reaction volume was reduced to 10 μl and 2. after pre-amplification, each cDNA sample was diluted 1:5 with 1XTE Buffer (Promega). cDNA samples were stored at −20° C. until needed. […]

In test [2] the test system is aggregation-prone soluble oligomeric protein (A11 antibody) in CL4176. The test can be described thus: A11 immunolocalization of soluble oligomeric protein, CL4176. To be noted: CL4176, 50 μM ThT. The procedure: (§1) For fluorescent microscopy, TJ356 zIs356 IV [daf-16::daf-16-gfp+rol-6] or CF2189 Is001(skn-1::gfp+rol-6) were paralyzed with 1 mM levamisole mounted on 1% agarose pads and imaged using Olympus BX51 (60× objective) and HCImage software (Hamamatsu). For immunofluorescence, N2, […], CB1157 unc-54(e1157) or CL4176 dvIs27 [myo-3::Aβ(3 to 42)-let 3′UTR(pAF29); pRF4 (rol-6(su1006))] worms were treated for 24-36 h with or without 50 μM ThT at 25° C. After this period the worms were collected, rinsed, and fixed in 4% paraformaldehyde overnight. […] Paramyosin and perlecans were detected with primary monoclonal antibodies 5-23 and MH3 (developed by Henry Epstein and Robert H. Waterston and obtained from the Developmental Studies Hybridoma Bank developed under the auspices of the NICHD and maintained by The University of Iowa, Department of Biology, Iowa City, Iowa 52242) and AlexaFluor 633 goat anti-mouse (Molecular Probes) as secondary antibody. Soluble oligomers and Aβ peptide were detected with anti polyclonal All (Invitrogen) and 6E10 monoclonal (Covance) primary antibodies, respectively, with AlexaFluor 568 goat anti-rabbit and AlexaFluor 488 goat anti-mouse (Molecular Probes) as secondary antibodies. Images were processed and quantified by using Image Analyst MK II (Novato, Calif.).

Test [3] has as its system DAF-16 fusion protein [TJ356 daf-16::daf-16-gfp]. The test can be described thus: DAF-16::GFP localization. The note with it: ThT or curcumin treatment, no heat shock. The procedure: as §1
The test system of test [4] is SKN-1 fusion protein [CF2189 (skn-1::GFP)]. The test can be described thus: SKN-1::GFP localization. The note with it: ThT treatment. The protocol: as §1
The next test relates to N2 worms. As to the kind of experiment: Locomotory ability / spontaneous movement (body bends). The note with it: 50 μM ThT. The protocol: Data are presented as bends/min and represent the average of three independent experiments. *p<0.0001. e) Dose-response Kaplan-Meier survival curves of synchronously ageing hermaphrodite N2 populations exposed to 0 (control) to […], f) HBX and g) HBT at 20° C. (−) Control, (▪) 1 nM, ([…]) 10 μM, (▴) 100 μM, (▾) […]. Graphs are representative of three independent experiments.

Another test relates to HSP-70. The test can be described thus: Western blot HSP-70. The note with it: 50 μM ThT, 4 and 7 days of treatment. The protocol: Peptide corresponding to amino acids 110-145 ([…]; SEQ ID NO:1) of HSP-16.2 was used to commercially synthesize antiserum (Invitrogen). Briefly, KLH-peptide was emulsified by mixing with an equal volume of Freund's adjuvant and injected into three subcutaneous dorsal sites for a total of 0.1 mg of peptide for immunization. The animals (rabbits) were bled, the blood allowed to clot and the serum collected by centrifugation. Monoclonal HSP-70 and Polyclonal HSF-1 primary antibodies were from stressgen (N27F3-4 and SPA-901, respectively).
Worms were transferred to siliconized eppendorf tubes, washed once in S-basal and frozen in liquid N2. Standard SDS-PAGE was performed using (4-12%) NOVEX gels and IVIES running buffer. Following transfer PVDF (BioRad) membranes were incubated with antisera (1:10000) or primary antibodies (1:1000) diluted in blocking buffer and then with secondary, goat anti-rabbit IgG antibody/horseradish peroxidase conjugate (Pierce), diluted 1:25000. Detection was undertaken with chemiluminescent reagents (SuperSignal, Pierce) and standard autoradiography.
On the technique in general: In western blotting, separated proteins are transferred to a membrane and probed.

The test system of a further test is CW152 gas-1(fc21) X. As to the kind of experiment: Ethanol sensitivity of gas-1 ts mutant. To be noted: 0.4 M EtOH, after 3 days of treatment.

Experimental for CW152 gas-1(fc21) X: as §2

Regarding `Cc1ccc2c(c1)sc(-c1ccc(N(C)C)cc1)[n+]2C.[Cl-]` [ThT, 4-(3,6-dimethyl-1,3-benzothiazol-3-ium-2-yl)-N,N-dimethylaniline chloride], the “proportion of paralyzed worms” value in test [1] was “significantly decrease the proportion of paralyzed worms”. Besides, the “HSF-1 RNA levels” value in the test on HSF-1 RNA was “no changes were detected”. Further, the A11-positive oligomeric material result in test [2] is listed as “significantly decreased”. In addition, the “DAF-16::GFP localization” value in test [3] is on record as “did not alter the normal localization”. The “SKN-1::GFP nuclear accumulation” value in test [4] is given as “no nuclear accumulation”. Further, the “age-related decline in spontaneous movement” value in the test on N2 worms is given as “retarded age-related decline in spontaneous movement”. The HSP-70 protein levels result in the test on HSP-70 is “up-regulated”. Besides, in the test on CW152 gas-1(fc21) X, the ethanol sensitivity result is listed as “decreases the ethanol sensitivity”.
